Data set [1] is filed under the species Rattus norvegicus. The conditions noted are these: in vivo, po, 5 mg/kg.
The species named for data set [2] is Rattus norvegicus. The conditions noted are these: in vivo, po, 5 mg/kg. This is another data set of the same source.
A short description of data set [3]: in vivo. The conditions noted are these: Sprague-Dawley, rat, po, 5 mg/kg.
Data set [4] is described as follows: physchem. The conditions noted are these: 0.01N HCl.
Data set [5] in a line: physchem. The conditions noted are these: phosphate buffered saline, pH 7.
A short description of data set [6]: in vivo. The conditions noted are these: Sprague-Dawley, rat, iv, 1 mg/kg.
Data set [7] is described as follows: physchem. The note with it: simulated intestinal fluid.

Converted amounts (≈) assume the structure as drawn.

Compound `CC(=O)Nc1nc2c(Oc3cc(-c4ccc(C(F)(F)F)cc4)ncn3)cccc2s1` [AMG-517] came in with a Vdss in the data set filed under Rattus norvegicus [1] of 1.6 L/kg. In the data set filed under Rattus norvegicus [2], this compound returned an AUC of 5400 ng·h/mL. In the data set “in vivo [3]”, this compound gave a half-life of 6.3 h. The solubility in “physchem [4]” and in the data set “physchem [5]” was less than 1 µg/mL throughout.

`CC(=O)Nc1nc2c(Oc3cc(-c4ccc(C(F)(F)F)cc4NC(=O)[C@@H]4CCCN4CC(C)C)ncn3)cccc2s1` had a clearance in the data set “in vivo [6]” of more than 66.7 mL/min/kg. Also, the solubility in “physchem [4]” is more than 200 µg/mL; in “physchem [5]”, 6 µg/mL (≈ 10 µM); in “physchem [7]” it was 39 µg/mL (≈ 65.1 µM).

Consider `CC(=O)Nc1nc2c(Oc3cc(-c4ccc(C(F)(F)F)cc4NC(=O)[C@H]4CCCN4CC(C)C)ncn3)cccc2s1`, for which the clearance in the data set “in vivo [6]” was more than 66.7 mL/min/kg. Moreover, the figures for the solubility in the data set “physchem [4]”, in the data set “physchem [5]” and in the data set “physchem [7]” were more than 200 µg/mL, 1 µg/mL (≈ 1.67 µM) and 39 µg/mL (≈ 65.1 µM), respectively.

For `CC(=O)Nc1nc2c(Oc3cc(-c4ccc(C(F)(F)F)cc4NC(=O)CCN(C)C)ncn3)cccc2s1`, the solubility was 81 µg/mL (≈ 149 µM) in the data set “physchem [4]”, 3.9 µg/mL (≈ 7.16 µM) in the data set “physchem [5]” and 30 µg/mL (≈ 55.1 µM) in the data set “physchem [7]”.

`CC(=O)Nc1nc2c(Oc3cc(-c4ccc(C(F)(F)F)cc4NC(=O)[C@@H]4CCC(C)N4)ncn3)cccc2s1` (stereo not given in full): in the data set “in vivo [6]”, the clearance was 10.3 mL/min/kg. Besides, the solubility in the data set “physchem [4]” is 120 µg/mL (≈ 216 µM); in “physchem [5]” it was 7.4 µg/mL (≈ 13.3 µM); in the data set “physchem [7]” it was 59 µg/mL (≈ 106 µM).

The AUC is the area under the concentration-time curve, a measure of exposure. Read a high AUC as high exposure. Usually half-life stands for how long it takes for the measured level to halve. A low value points to rapid decline. What is called solubility is how much of the substance goes into solution per volume. A word on the clearance: it is a measure of how efficiently the substance is removed, as volume per time. Lower therefore signals inefficient removal.

The values are drawn from ChEMBL document CHEMBL1141683, “Substituted aryl pyrimidines as potent and soluble TRPV1 antagonists” (Bioorg Med Chem Lett, 2008).
